Results as given in paper PMC7023430, “4-Aminobenzoic Acid Derivatives: Converting Folate Precursor to Antimicrobial and Cytotoxic Agents” (Biomolecules, 2019).
≈ marks a conversion by molar mass, not a printed value. Read-outs that look alike come from different tables or passages of the source.

Assays:
[1] = test system: Aspergillus fumigatus 231; assay: Antifungal microdilution broth method, A. fumigatus; format: cell-based
Procedure, shortened: (§1)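 MICs were scored by eye in duplicate runs, accepted when the two differed by no more than one twofold step. Medium was RPMI-1640 (L-glutamine, 2% glucose) buffered with MOPS at pH 7.0, with DMSO-dissolved compounds serially halved per modified EUCAST protocol.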

[2] = test system: Candida tropicalis 156; assay: Antifungal microdilution broth method, C. tropicalis; format: cell-based
Procedure, shortened: as §1

[3] = test system: Klebsiella pneumoniae D 11750/08; assay: Antibacterial microdilution broth method, K. pneumoniae; settings: K. pneumoniae D 11750/08; for MIC KP 24 h: 24 h incubation; for MIC KP 48 h: 48 h incubation
[4] = test system: Mycobacterium kansasii 235/80; assay: Antimycobacterial micromethod in Šula's medium, M. kansasii 235/80; format: cell-based
[5] = test system: Trichophyton interdigitale 445; assay: Antifungal microdilution broth method, T. interdigitale; format: cell-based
Procedure, shortened: as §1

[6] = test system: methicillin-resistant Staphylococcus aureus ATCC 43300, CCM 4750 (MRSA); assay: Antibacterial microdilution broth method, MRSA; format: cell-based; settings: Staphylococcus aureus
[7] = test system: Lichtheimia corymbifera 272; assay: Antifungal microdilution broth method, L. corymbifera; format: cell-based
Procedure, shortened: as §1

[8] = test system: Candida albicans ATCC 44859; assay: Antifungal microdilution broth method, C. albicans; format: cell-based
Procedure, shortened: as §1

[9] = test system: Candida krusei E28; assay: Antifungal microdilution broth method, C. krusei; format: cell-based; settings: Pichia kudriavzevii
Procedure, shortened: as §1

[10] = test system: ESBL-positive Klebsiella pneumoniae J 14368/08
[11] = test system: Pseudomonas aeruginosa ATCC 27853, CCM 3955; assay: Antibacterial microdilution broth method, P. aeruginosa; format: cell-based; settings: Pseudomonas aeruginosa
[12] = test system: Staphylococcus epidermidis H 6966/08; assay: Antibacterial microdilution broth method, S. epidermidis; format: cell-based; settings: Staphylococcus epidermidis, H6966/08, S. epidermidis
[13] = test system: Staphylococcus aureus ATCC 29213, CCM 4223; assay: Antibacterial microdilution broth method, S. aureus; format: cell-based
[14] = test system: M. kansasii 6509/96 (clinical isolate); assay: Antimycobacterial micromethod in Šula's medium, M. kansasii 6509/96; format: cell-based; settings: Mycobacterium kansasii
[15] = test system: HepG2 cells; assay: Cytotoxicity, CellTiter 96 assay; format: cell-based, human; settings: Homo sapiens, HepG2, 24 h, 24 h incubation
Procedure, shortened: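 HepG2 cells (10,000/well) exposed 24 h at 37 °C, 5% CO2 to compounds in DMSO (≤1% v/v final), triplicates. Viability by tetrazolium-to-formazan reduction (CellTiter 96 AQueous One), absorbance 490 nm after 2 h. IC50 from nonlinear regression versus untreated controls; 10% DMSO defined 0% viability.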

[16] = test system: Candida glabrata 20/I; assay: Antifungal microdilution broth method, C. glabrata; format: cell-based; settings: Nakaseomyces glabratus
Procedure, shortened: as §1

[17] = 235/80, 168 h, 7 days incubation at 37 °C, read-out: MIC M. kansasii 235/80 7 d
[18] = 235/80, 336 h, 14 days incubation at 37 °C, read-out: MIC M. kansasii 235/80 14 d
[19] = 235/80, 504 h, 21 days incubation at 37 °C, read-out: MIC M. kansasii 235/80 21 d
[20] = 24 h incubation, read-out: MIC MRSA 24 h
[21] = 48 h incubation, read-out: MIC MRSA 48 h
[22] = ATCC44859, 24 h, read-out: MIC CA 24 h
[23] = ATCC44859, 48 h, read-out: MIC CA 48 h
[24] = P. aeruginosa, 24 h incubation, read-out: MIC PA 24 h
[25] = P. aeruginosa, 48 h incubation, read-out: MIC PA 48 h
[26] = 24 h incubation, read-out: MIC SE 24 h
[27] = 48 h incubation, read-out: MIC SE 48 h
[28] = 24 h incubation, read-out: MIC SA 24 h
[29] = 48 h incubation, read-out: MIC SA 48 h
[30] = 168 h, 7 days incubation at 37 °C, read-out: MIC M. kansasii 6509/96 7 d
[31] = 336 h, 14 days incubation at 37 °C, read-out: MIC M. kansasii 6509/96 14 d
[32] = 504 h, 21 days incubation at 37 °C, read-out: MIC M. kansasii 6509/96 21 d

Structure (SMILES) | MIC ([1]; 24 h, read-out: MIC AF 24 h) [µM] | MIC ([1]; 48 h, read-out: MIC AF 48 h) [µM] | MIC ([2]; 24 h, read-out: MIC CT 24 h) [µM] | MIC ([2]; 48 h, read-out: MIC CT 48 h) [µM] | MIC KP 24 h [3] [µM] | MIC KP 48 h [3] [µM] | MIC [4, 17] [µM] | MIC [4, 18] [µM] | MIC [4, 19] [µM] | MIC ([5]; 72 h, read-out: MIC TI 72 h) [µM] | MIC ([5]; 120 h, read-out: MIC TI 120 h) [µM] | MIC [6, 20] [µM] | MIC [6, 21] [µM] | MIC ([7]; 24 h, read-out: MIC LC 24 h) [µM] | MIC ([7]; 48 h, read-out: MIC LC 48 h) [µM] | MIC [8, 22] [µM] | MIC [8, 23] [µM] | MIC ([9]; 24 h, read-out: MIC CK 24 h) [µM] | MIC ([9]; 48 h, read-out: MIC CK 48 h) [µM] | MIC KP-E 24 h [10] [µM] | further results
O=C(O)c1ccc(N=Cc2cc(Cl)cc(I)c2O)cc1 [1p, 4-[(5-Chloro-2-hydroxy-3-iodobenzylidene)amino]benzoic acid] | 125 (≈ 50.2 µg/mL) | 125 (≈ 50.2 µg/mL) | 31.2 (≈ 12.5 µg/mL) | 31.2 (≈ 12.5 µg/mL) | 125 (≈ 50.2 µg/mL) | 125 (≈ 50.2 µg/mL) | 250 (≈ 100 µg/mL) | 500 (≈ 201 µg/mL) | 500 (≈ 201 µg/mL) | 7.81 (≈ 3.14 µg/mL) | 7.81 (≈ 3.14 µg/mL) | 15.6 (≈ 6.27 µg/mL) | 15.6 (≈ 6.27 µg/mL) | 250 (≈ 100 µg/mL) | 250 (≈ 100 µg/mL) | 7.81 (≈ 3.14 µg/mL) | 7.81 (≈ 3.14 µg/mL) | 15.6 (≈ 6.27 µg/mL) | 15.6 (≈ 6.27 µg/mL) | 125 (≈ 50.2 µg/mL) | MIC KP-E 48 h [10]: 125 µM (≈ 50.2 µg/mL); MIC [11, 24]: > 500 µM; MIC [11, 25]: > 500 µM; MIC [12, 26]: 31.2 µM (≈ 12.5 µg/mL); MIC [12, 27]: 31.2 µM (≈ 12.5 µg/mL); MIC [13, 28]: 15.6 µM (≈ 6.27 µg/mL); MIC [13, 29]: 15.6 µM (≈ 6.27 µg/mL); MIC [14, 30]: 250 µM (≈ 100 µg/mL); MIC [14, 31]: 250 µM (≈ 100 µg/mL); MIC [14, 32]: 500 µM (≈ 201 µg/mL); IC50 [15]: 53.4 µM; MIC ([16]; 24 h, read-out: MIC CG 24 h): 7.81 µM (≈ 3.14 µg/mL); MIC ([16]; 48 h, read-out: MIC CG 48 h): 7.81 µM (≈ 3.14 µg/mL)
O=C(O)c1ccc(N=Cc2cc(I)cc(I)c2O)cc1 [1q, 4-[(2-Hydroxy-3,5-diiodobenzylidene)amino]benzoic acid] | 125 (≈ 61.6 µg/mL) | 125 (≈ 61.6 µg/mL) | 15.6 (≈ 7.7 µg/mL) | 15.6 (≈ 7.7 µg/mL) | 500 (≈ 247 µg/mL) | 500 (≈ 247 µg/mL) | 250 (≈ 123 µg/mL) | 500 (≈ 247 µg/mL) | 500 (≈ 247 µg/mL) | 7.81 (≈ 3.85 µg/mL) | 7.81 (≈ 3.85 µg/mL) | 62.5 (≈ 30.8 µg/mL) | 62.5 (≈ 30.8 µg/mL) | 250 (≈ 123 µg/mL) | 250 (≈ 123 µg/mL) | 7.81 (≈ 3.85 µg/mL) | 7.81 (≈ 3.85 µg/mL) | 31.2 (≈ 15.4 µg/mL) | 31.2 (≈ 15.4 µg/mL) | 500 (≈ 247 µg/mL) | MIC KP-E 48 h [10]: 500 µM (≈ 247 µg/mL); MIC [11, 24]: > 500 µM; MIC [11, 25]: > 500 µM; MIC [12, 26]: 62.5 µM (≈ 30.8 µg/mL); MIC [12, 27]: 62.5 µM (≈ 30.8 µg/mL); MIC [13, 28]: 62.5 µM (≈ 30.8 µg/mL); MIC [13, 29]: 62.5 µM (≈ 30.8 µg/mL); MIC [14, 30]: 250 µM (≈ 123 µg/mL); MIC [14, 31]: 250 µM (≈ 123 µg/mL); MIC [14, 32]: 250 µM (≈ 123 µg/mL); IC50 [15]: 57.8 µM; MIC ([16]; 24 h, read-out: MIC CG 24 h): 7.81 µM (≈ 3.85 µg/mL); MIC ([16]; 48 h, read-out: MIC CG 48 h): 7.81 µM (≈ 3.85 µg/mL)
O=C(O)c1ccc(N=Cc2ccc([N+](=O)[O-])o2)cc1 [1r, 4-{[(5-Nitrofuran-2-yl)methylene]amino}benzoic acid] | > 500 | > 500 | 250 (≈ 65.1 µg/mL) | 250 (≈ 65.1 µg/mL) | 500 (≈ 130 µg/mL) | 500 (≈ 130 µg/mL) | 62.5 (≈ 16.3 µg/mL) | 125 (≈ 32.5 µg/mL) | 250 (≈ 65.1 µg/mL) | 250 (≈ 65.1 µg/mL) | 250 (≈ 65.1 µg/mL) | 62.5 (≈ 16.3 µg/mL) | 62.5 (≈ 16.3 µg/mL) | > 500 | > 500 | 250 (≈ 65.1 µg/mL) | 250 (≈ 65.1 µg/mL) | 62.5 (≈ 16.3 µg/mL) | 62.5 (≈ 16.3 µg/mL) | 500 (≈ 130 µg/mL) | MIC KP-E 48 h [10]: 500 µM (≈ 130 µg/mL); MIC [11, 24]: 500 µM (≈ 130 µg/mL); MIC [11, 25]: 500 µM (≈ 130 µg/mL); MIC ([11]; time not stated, read-out: MIC, P. aeruginosa): 500 µM (≈ 130 µg/mL); MIC [12, 26]: 125 µM (≈ 32.5 µg/mL); MIC [12, 27]: 125 µM (≈ 32.5 µg/mL); MIC [13, 28]: 62.5 µM (≈ 16.3 µg/mL); MIC [13, 29]: 62.5 µM (≈ 16.3 µg/mL); MIC [14, 30]: 125 µM (≈ 32.5 µg/mL); MIC [14, 31]: 125 µM (≈ 32.5 µg/mL); MIC [14, 32]: 250 µM (≈ 65.1 µg/mL); IC50 [15]: 15 µM; MIC ([16]; 24 h, read-out: MIC CG 24 h): 250 µM (≈ 65.1 µg/mL); MIC ([16]; 48 h, read-out: MIC CG 48 h): 250 µM (≈ 65.1 µg/mL)
O=C(O)c1ccc(NCc2ccccc2O)cc1 [1u, 4-[(2-Hydroxybenzyl)amino]benzoic acid] | > 500 | > 500 | > 500 | > 500 | >500 | >500 | 1000 (≈ 243 µg/mL) | 1000 (≈ 243 µg/mL) | 1000 (≈ 243 µg/mL) | > 500 | > 500 | > 500 | > 500 | > 500 | > 500 | > 500 | > 500 | > 500 | > 500 | >500 | MIC KP-E 48 h [10]: >500 µM; MIC [11, 24]: > 500 µM; MIC [11, 25]: > 500 µM; MIC [12, 26]: > 500 µM; MIC [12, 27]: > 500 µM; MIC [13, 28]: > 500 µM; MIC [13, 29]: > 500 µM; MIC [14, 30]: 1000 µM (≈ 243 µg/mL); MIC [14, 31]: 1000 µM (≈ 243 µg/mL); MIC [14, 32]: 1000 µM (≈ 243 µg/mL); IC50 [15]: > 500 µM; MIC ([16]; 24 h, read-out: MIC CG 24 h): > 500 µM; MIC ([16]; 48 h, read-out: MIC CG 48 h): > 500 µM
